Experimental data taken from PubChem BioAssay AID248 (DTP/NCI, 2004).
Several values for one entry are separate records, joined by “and”; a condition that tells them apart may be missing. Equal values may be shown once. Inconclusive results and toxic doses are left out. No stated cut-off is given here; in the data, active means T/C of 150% or more; inactive means T/C below 125%.

Test system: L1210 leukemia ip in BDF1 mice, survival T/C
Test: NCI In Vivo Anticancer Drug Screen. Data for tumor model L1210 Leukemia (intraperitoneal) in B6D2F1 (BDF1) mice
Conditions: endpoint: mean survival time, higher = longer survival
Procedure, shortened: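 Transplantable tumor model; survival measured in treated vs vehicle control mice. Value = treated/control.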

[1] = dose: 200.0 mg/kg/injection, schedule: Q01DX009 (ip), vehicle: Klucel (hydroxypropylcellulose) (HPC)
[2] = dose: 100.0 mg/kg/injection, schedule: Q01DX009 (ip), vehicle: saline with Tween-80
[3] = dose: 400.0 mg/kg/injection, schedule: Q01DX009 (ip), vehicle: saline with Tween-80
[4] = dose: 100.0 mg/kg/injection, schedule: Q01DX001 (ip), vehicle: carboxymethylcellulose (CMC)
[5] = dose: 200.0 mg/kg/injection, schedule: Q01DX001 (ip), vehicle: carboxymethylcellulose (CMC)
[6] = dose: 400.0 mg/kg/injection, schedule: Q01DX001 (ip), vehicle: carboxymethylcellulose (CMC)
[7] = dose: 75.0 mg/kg/injection, schedule: Q01DX001 (ip), vehicle: saline
[8] = dose: 150.0 mg/kg/injection, schedule: Q01DX001 (ip), vehicle: saline
[9] = dose: 300.0 mg/kg/injection, schedule: Q01DX001 (ip), vehicle: saline
[10] = dose: 100.0 mg/kg/injection, schedule: Q04DX003 (ip), vehicle: saline
[11] = dose: 200.0 mg/kg/injection, schedule: Q04DX003 (ip), vehicle: saline
[12] = dose: 400.0 mg/kg/injection, schedule: Q04DX003 (ip), vehicle: saline
[13] = dose: 100.0 mg/kg/injection, schedule: Q01DX009 (ip), vehicle: saline

Measured: T/C

CC(=O)Nc1ccc(NC(=O)/C=C/c2ccccc2)cc1
inactive: dose: 100.0 mg/kg/injection, schedule: Q01DX009 (ip), vehicle: Klucel (hydroxypropylcellulose) (HPC) 103 % of control | [1] 95 % of control | dose: 400.0 mg/kg/injection, schedule: Q01DX009 (ip), vehicle: Klucel (hydroxypropylcellulose) (HPC) 105 % of control

Cc1ccc(NC(=O)Oc2ccc(-c3ccccc3)cc2)cc1NC(=O)Oc1ccc(-c2ccccc2)cc1
inactive: [2] 91 % of control | [3] 96 % of control

O=c1[nH]nc(N/N=C/c2ccccc2)n1/N=C/c1ccccc1
inactive: dose: 100.0 mg/kg/injection, schedule: Q04DX003 (ip), vehicle: Klucel (hydroxypropylcellulose) (HPC) 100 % of control | dose: 200.0 mg/kg/injection, schedule: Q04DX003 (ip), vehicle: Klucel (hydroxypropylcellulose) (HPC) 96 % of control | dose: 400.0 mg/kg/injection, schedule: Q04DX003 (ip), vehicle: Klucel (hydroxypropylcellulose) (HPC) 94 % of control

O=C(N/N=C/c1ccccc1O)c1cc2ccccc2cc1O
inactive: [2] 91 % of control | dose: 200.0 mg/kg/injection, schedule: Q01DX009 (ip), vehicle: saline with Tween-80 86 % of control | [3] 90 % of control

COc1ccc2nc3ccccc3c(NCCCN(C)C)c2c1
inactive: dose: 5.0 mg/kg/injection, schedule: Q01DX001 (ip), vehicle: saline 115 % of control | dose: 10.0 mg/kg/injection, schedule: Q01DX001 (ip), vehicle: saline 115 % of control | dose: 20.0 mg/kg/injection, schedule: Q01DX001 (ip), vehicle: saline 107 % of control | dose: 40.0 mg/kg/injection, schedule: Q01DX001 (ip), vehicle: saline 106 % of control

O=C1c2ccccc2-c2ccc([N+](=O)[O-])c(Br)c21
inactive: [4] 106 % of control | [5] 106 % of control | [6] 102 % of control

CCOC(=O)C1(CCOC(C)=O)CCCCC1=O (stereo unspecified)
inactive: [4] 93 % of control | [5] 93 % of control | [6] 102 % of control

CCCCN(CCCC)C(=O)C1C=C2c3cccc4[nH]cc(c34)CC2N(C)C1 (stereo unspecified)
inactive: dose: 100.0 mg/kg/injection, schedule: Q01DX009 (ip), vehicle: water 104 % of control | dose: 200.0 mg/kg/injection, schedule: Q01DX009 (ip), vehicle: water 110 % of control

O=C1OCC/C1=C\c1ccccc1
inactive: [4] 91 % of control | [5] 94 % of control

CNC(CO)C1CCCCC1 (stereo unspecified)
inactive: [7] 100 % of control | [8] 102 % of control | [9] 101 % of control

COc1ccc(N=Cc2ccc(OC(=O)c3ccccc3)c(OC)c2)cc1
inactive: dose: 100.0 mg/kg/injection, schedule: Q04DX002 (ip), vehicle: saline with Tween-80 100 % of control | dose: 200.0 mg/kg/injection, schedule: Q04DX002 (ip), vehicle: saline with Tween-80 100 % of control | dose: 400.0 mg/kg/injection, schedule: Q04DX002 (ip), vehicle: saline with Tween-80 93 % of control

NC(=O)Nc1cc(N)cc(NC(N)=O)c1
inactive: [10] 96 % of control | [11] 107 % of control | [12] 106 % of control

N#CC1CN2c3ccc4ccccc4c3CCC2C1=O (stereo unspecified)
inactive: dose: 50.0 mg/kg/injection, schedule: Q01DX001 (ip), vehicle: saline 106 % of control | dose: 100.0 mg/kg/injection, schedule: Q01DX001 (ip), vehicle: saline 104 % of control | dose: 200.0 mg/kg/injection, schedule: Q01DX001 (ip), vehicle: saline 104 % of control

Clc1nc2ccccc2nc1CI
inactive: dose: 6.25 mg/kg/injection, schedule: Q01DX009 (ip), vehicle: Klucel (hydroxypropylcellulose) (HPC) 94 % of control | dose: 12.5 mg/kg/injection, schedule: Q01DX009 (ip), vehicle: Klucel (hydroxypropylcellulose) (HPC) 102 % of control | dose: 25.0 mg/kg/injection, schedule: Q01DX009 (ip), vehicle: saline with Tween-80 89 % of control | dose: 25.0 mg/kg/injection, schedule: Q04DX003 (ip), vehicle: Klucel (hydroxypropylcellulose) (HPC) 102 % of control | dose: 50.0 mg/kg/injection, schedule: Q04DX003 (ip), vehicle: Klucel (hydroxypropylcellulose) (HPC) 90 % of control

CCCN=Cc1ccccc1O.CCCN=Cc1ccccc1O.[Ni]
inactive: dose: 75.0 mg/kg/injection, schedule: Q01DX001 (ip), vehicle: other 95 % of control | dose: 150.0 mg/kg/injection, schedule: Q01DX001 (ip), vehicle: other 108 % of control

CCCCN(C)N=Nc1ccccc1C(N)=O
inactive: dose: 89.0 mg/kg/injection, schedule: Q01DX009 (ip), vehicle: Klucel (hydroxypropylcellulose) (HPC) 108 % of control | dose: 89.0 mg/kg/injection, schedule: Q01DX009 (ip), vehicle: other 108 % of control | dose: 133.0 mg/kg/injection, schedule: Q01DX009 (ip), vehicle: Klucel (hydroxypropylcellulose) (HPC) 122 % of control | dose: 133.0 mg/kg/injection, schedule: Q01DX009 (ip), vehicle: other 122 % of control | dose: 177.0 mg/kg/injection, schedule: Q01DX001 (ip), vehicle: other 97 % of control | [1] 115 % of control | dose: 200.0 mg/kg/injection, schedule: Q01DX009 (ip), vehicle: other 108 % of control | dose: 266.0 mg/kg/injection, schedule: Q01DX001 (ip), vehicle: other 113 % of control | dose: 300.0 mg/kg/injection, schedule: Q01DX009 (ip), vehicle: Klucel (hydroxypropylcellulose) (HPC) 111 % of control and 124 % of control | dose: 300.0 mg/kg/injection, schedule: Q01DX009 (ip), vehicle: other 95 % of control and 90 % of control | dose: 400.0 mg/kg/injection, schedule: Q01DX001 (ip), vehicle: other 101 % of control

FC(F)(CI)C(F)(F)C(F)(F)CI
inactive: dose: 100.0 mg/kg/injection, schedule: Q01DX001 (ip), vehicle: acetone 88 % of control | dose: 200.0 mg/kg/injection, schedule: Q01DX001 (ip), vehicle: acetone 88 % of control | dose: 400.0 mg/kg/injection, schedule: Q01DX001 (ip), vehicle: acetone 88 % of control

NC1(C(=O)O)Cc2ccccc2C1
inactive: dose: 50.0 mg/kg/injection, schedule: Q01DX001 (ip), vehicle: olive oil, sesame oil, peanut oil 101 % of control | dose: 100.0 mg/kg/injection, schedule: Q01DX001 (ip), vehicle: olive oil, sesame oil, peanut oil 101 % of control | dose: 200.0 mg/kg/injection, schedule: Q01DX001 (ip), vehicle: olive oil, sesame oil, peanut oil 112 % of control | dose: 400.0 mg/kg/injection, schedule: Q01DX001 (ip), vehicle: olive oil, sesame oil, peanut oil 104 % of control

Cc1cccc(C)c1Nc1cc(=O)[nH]c(=O)[nH]1
inactive: dose: 75.0 mg/kg/injection, schedule: Q01DX001 (ip), vehicle: saline with Tween-80 106 % of control | dose: 150.0 mg/kg/injection, schedule: Q01DX001 (ip), vehicle: saline with Tween-80 89 % of control | dose: 300.0 mg/kg/injection, schedule: Q01DX001 (ip), vehicle: saline with Tween-80 96 % of control

CCCCCC(CN(C)C)C(=O)/C=C/c1ccc(Cl)c(Cl)c1 (stereo unspecified)
inactive: dose: 12.5 mg/kg/injection, schedule: Q04DX003 (ip), vehicle: acetone 95 % of control | dose: 25.0 mg/kg/injection, schedule: Q04DX003 (ip), vehicle: acetone 92 % of control

CC1(C)CC(C)(c2ccc(O)cc2)Oc2ccccc21 (stereo unspecified)
inactive: dose: 100.0 mg/kg/injection, schedule: Q04DX003 (ip), vehicle: saline with Tween-80 93 % of control | dose: 200.0 mg/kg/injection, schedule: Q04DX003 (ip), vehicle: saline with Tween-80 89 % of control

FC(F)(F)c1ccc2c(c1)C1c3ccccc3C2c2ccccc21
inactive: [13] 98 % of control | [10] 100 % of control | dose: 200.0 mg/kg/injection, schedule: Q01DX009 (ip), vehicle: saline 100 % of control | [11] 98 % of control | dose: 400.0 mg/kg/injection, schedule: Q01DX009 (ip), vehicle: saline 91 % of control | [12] 100 % of control

CC(=C/C(C)(C)C)/C(C)=C/C(C)(C)C
inactive: [13] 88 % of control

O=C(NO)N/N=C/C=N/NC(=O)NO
inactive: [7] 100 % of control | [8] 100 % of control | [9] 107 % of control

O=C1c2cc([N+](=O)[O-])ccc2-c2cc(F)ccc21
inactive: dose: 50.0 mg/kg/injection, schedule: Q01DX001 (ip), vehicle: carboxymethylcellulose (CMC) 104 % of control | [4] 95 % of control | [5] 93 % of control | [6] 90 % of control

CCOC(=O)C(C)(C)CO
inactive: dose: 200.0 mg/kg/injection, schedule: Q04DX003 (ip), vehicle: saline sonified 103 % of control | dose: 400.0 mg/kg/injection, schedule: Q04DX003 (ip), vehicle: saline sonified 93 % of control | dose: 800.0 mg/kg/injection, schedule: Q04DX003 (ip), vehicle: saline sonified 101 % of control
